{"source": "patent US20050039231A1", "about": "“Method for selecting transformed plant cells using ethionine and cystathionine gamma synthase as the selection agent and marker gene” (Rutgers, The State University, priority 1999, published 2005)", "key": {"[1]": {"system": "transgenic potato plants (CGS+)", "test": "Resistance to ethionine in CGS+ transgenic potato plants (growth on maintenance medium with ethionine)", "assay_type": "in vivo, Russet Burbank potato", "method": "(§1) Inaba, et al. used 100 μM ethionine, the toxic analogue of methionine to select Arabidopsis thaliana mutants that overaccumulated methionine. We tested the effects of ethionine on the growth of transgenic potato plants by incorporating ethionine into the maintenance medium. Several concentrations of ethionine, 10, 25, 50, 100, 200, 300 μM were tested initially using wild-type potato plants."}, "[2]": {"system": "wild-type potato plants", "test": "Effect of ethionine in the maintenance medium on growth of wild-type potato plants", "assay_type": "in vivo, Russet Burbank potato", "method": "as §1"}, "[3]": {"conditions": "ethionine 10 μM in maintenance medium"}}}
{"smiles": "CCSCC[C@H](N)C(=O)O", "note": "[ethionine]", "values": [{"measurement": "growth of transgenic potato plants", "setting": "[1]; [3]", "value": "continued to grow"}, {"measurement": "root initiation of transgenic potato plants", "setting": "[1]; [3]", "value": "all transgenic plants initiated roots in three days"}, {"measurement": "growth of transgenic potato plants", "setting": "[1]; ethionine 25 and 50 μM in maintenance medium", "value": "only CGS4 and CGS8 had limited growth of roots"}, {"measurement": "growth of wild-type potato plants", "setting": "[2]; [3]", "value": "growth of wild-type plants were inhibited"}, {"measurement": "growth of wild-type potato plants", "setting": "[2]; ethionine 50 μM and higher (10, 25, 50, 100, 200, 300 μM tested) in maintenance medium", "value": "total inhibition of growth"}]}
